We go through 1 compound from US11702440B2, “Pharmaceutical polymorphs of Molnupiravir” (OPTIMUS DRUGS (P) LTD, priority 2021, dated 2023).

A short description of data set [1]: First-in-human phase 1 single and multiple ascending dose pharmacokinetics in healthy volunteers. In kind it is in vivo. As for the experimental part: Single and multiple doses of Molnupiravir were evaluated in this first-in-human, phase 1, […] randomized, double-blind, placebo-controlled study in healthy volunteers, which included […] evaluation of the effect of food on pharmacokinetics. Eligible subjects were randomized in a 3:1 ratio to either study drug or placebo in the single- and multiple-ascending-dose parts of the study. Each cohort comprised 8 subjects, with single oral doses of 50 to 1600 mg administered in the single-ascending-dose part and twice-daily (BID) […] doses of 50 to 800 mg administered for 5.5 days in the multiple-ascending-dose part. Subjects were followed for 14 days following completion of dosing for assessments of safety, tolerability, and pharmacokinetics. Subjects in the food-effect evaluation were randomized in a 1:1 ratio to either 200 mg Molnupiravir in the fed state followed by 200 mg Molnupiravir in the fasted state, or vice versa, with a 14-day washout period between doses. A capsule formulation was used in all parts of the study, with the exception of single ascending doses ≤800 mg, where an oral solution formulation was used.

Another data set concerns SARS-CoV-2. Conditions: found in March 2020; cited from earlier work.
Data set [2] deals with coronaviruses including SARS, MERS and SARS-CoV-2. To be noted: cited from earlier work.
Data set [3] can be described thus: In-vitro dissolution study of Molnupiravir Capsules. In kind it is physicochemical. To be noted: 900 ml 0.1 N HCl, paddle 50 RPM. As to the method:
Dissolution study of test product Molnupiravir Capsules 200 mg, 400 mg 800 mg was performed in order to understand % dissolution in release dissolution media. The dissolution media used for the test is 900 ml of 0.1 NHCl at 50 RPM with paddle.

Turning to `CC(C)C(=O)OC[C@H]1O[C@@H](n2ccc(NO)nc2=O)[C@H](O)[C@@H]1O` [Molnupiravir], the “mean AUCinf increase with dose” value in data set [1] (Day 1, power model, oral, lower bound of 90% CI slightly above unity) was “approximately dose-proportional”. Further, the “mean Cmax increase with dose” value is “approximately dose-proportional” in data set [1] (Day 1, power model, oral, upper bound of 90% CI slightly below unity) and “dose proportional” in data set [1] (Day 6, BID oral dosing, 90% CI containing unity). Moreover, the “mean AUCτ increase with dose” value in data set [1] (Day 6, BID oral dosing, lower bound of 90% CI slightly above unity) is on record as “approximately dose-proportional”. Also, the “activity against SARS-CoV-2” value in the data set on SARS-CoV-2 was “active”. In data set [2], the activity against coronaviruses entry is recorded as “Activity has also been demonstrated”. The “% Drug release of Molnupiravir” value turned out to be 85% in data set [3] (200 mg capsules, 5 min); 97% in data set [3] (200 mg capsules, 10 min); 97% in data set [3] (200 mg capsules, 15 min); 102% in data set [3] (200 mg capsules, 20 min); 103% in data set [3] (200 mg capsules, 30 min); 102% in data set [3] (200 mg capsules, 45 min). In addition, the “% Drug release of Molnupiravir” value in data set [3] (400 mg capsules, 5 min) turned out to be 86%; in data set [3] (400 mg capsules, 10 min) it was 90%; in data set [3] (400 mg capsules, 15 min) it was 93%; in data set [3] (400 mg capsules, 20 min) it was 97%; in data set [3] (400 mg capsules, 30 min), 97%; in data set [3] (400 mg capsules, 45 min) it was 97%. Moreover, the “% Drug release of Molnupiravir” value in data set [3] (800 mg capsules, 5 min) worked out at 84%; in data set [3] (800 mg capsules, 10 min) it was 95%; in data set [3] (800 mg capsules, 15 min), 97%; in data set [3] (800 mg capsules, 20 min) it was 99%; in data set [3] (800 mg capsules, 30 min) it was 101%; in data set [3] (800 mg capsules, 45 min), 101%.
